Test results from BindingDB's records for doi:10.3109/14756366.2010.529807 (University of Ioannina, 2011).

Target: T1, Seed linoleate 13S-lipoxygenase-1 (Glycine max, UniProt P08170)
T1 sequence (P08170 whole entry): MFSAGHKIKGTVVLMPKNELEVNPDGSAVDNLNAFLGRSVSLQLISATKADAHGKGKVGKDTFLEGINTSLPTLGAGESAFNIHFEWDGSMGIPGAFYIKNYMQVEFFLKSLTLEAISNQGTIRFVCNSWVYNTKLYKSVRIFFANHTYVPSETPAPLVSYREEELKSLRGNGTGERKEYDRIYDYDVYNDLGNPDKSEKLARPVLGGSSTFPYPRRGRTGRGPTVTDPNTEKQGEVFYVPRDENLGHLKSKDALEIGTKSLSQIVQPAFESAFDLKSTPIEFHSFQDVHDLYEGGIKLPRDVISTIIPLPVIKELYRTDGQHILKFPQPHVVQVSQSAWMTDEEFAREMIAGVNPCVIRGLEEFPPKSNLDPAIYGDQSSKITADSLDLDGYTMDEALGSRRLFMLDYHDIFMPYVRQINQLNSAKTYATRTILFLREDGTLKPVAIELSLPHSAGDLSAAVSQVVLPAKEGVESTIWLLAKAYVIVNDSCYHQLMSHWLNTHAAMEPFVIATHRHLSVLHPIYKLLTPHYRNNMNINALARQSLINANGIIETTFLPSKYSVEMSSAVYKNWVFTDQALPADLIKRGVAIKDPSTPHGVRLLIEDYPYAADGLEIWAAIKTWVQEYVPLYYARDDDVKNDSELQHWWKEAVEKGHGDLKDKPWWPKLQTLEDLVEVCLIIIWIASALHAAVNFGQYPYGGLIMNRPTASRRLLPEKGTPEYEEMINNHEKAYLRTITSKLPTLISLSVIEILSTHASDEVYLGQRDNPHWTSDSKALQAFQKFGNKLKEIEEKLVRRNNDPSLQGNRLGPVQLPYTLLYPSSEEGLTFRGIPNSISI
Experiment: LOX Activity Assay
Conditions: 25 °C
Description: Enzyme activity was monitored by UV analysis. 0.05 cm^3 of enzyme solution was added to a cuvette containing 2 cm^3 linoleic acid solution and the appropriate amounts of buffer and inhibitor solutions in thermostatic water bath at 25°C. There was no pre-incubation time of the enzyme with inhibitor solution. The activity of the enzyme was determined by monitoring the increase in the absorption caused by the oxidation of linoleic acid at 234 nm and 25°C (ε = 25 000 M^−1 cm^−1). One standard solution of complexes in DMSO (10^-2 M) was used for theinhibition activity experiments (three sets). In this case, the substrate concentration was kept constant (0.3 mM), while the amounts of buffer and inhibitor solutions varied according to the inhibitor final concentration needed(0.5-30 μM or 0.15-9 μL from standard solutions). The total experiment volume was 3 cm^3.

IC50 [µM] | SMILES
16 | Clc1ccc2sc([S][Au][PH](c3ccccc3)(c3ccccc3)c3ccccc3)nc2c1 [[Au(tpp)(Clmbzt)] (4)]
39.4 | c1ccc([PH]([Au][S]c2nc3ccccc3s2)(c2ccccc2)c2ccccc2)cc1 [[Au(tpp)(mbzt)] (3)]
18.8 | c1ccc([PH]([Au][S]C2=NCCS2)(c2ccccc2)c2ccccc2)cc1 [[Au(tpp)(mtzd)] (2)]
1.2 | [Cl][Au][PH](c1ccccc1)(c1ccccc1)c1ccccc1 [[Au(tpp)Cl] (1)]
